Results on 20 compounds are retold here after ChEMBL document CHEMBL1201862, “PubChem BioAssay data set” (2004).

Assay [1] is described as follows: reduction of Shn3 3'UTR-driven luciferase in osteoblasts – cell-based, Clone20 osteoblasts, firefly luciferase, cherry-picked, dose response (AID 624132).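 Note: firefly luciferase luminescence from reporter carrying the Shn3 3'UTR in osteoblasts.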 Type of assay: functional.
Assay [2] can be described thus: loss of viability in HepG2 cells – cell-based, CellTiter-Glo, cherry-picked, cytotoxicity control for Shn3 inhibitor project, dose response (AID 624134). Type of assay: functional. A general note: Cellular ATP, detected with luciferase, serves as a proxy for viable cell number.
The nature of assay [3]: non-specific 3'UTR reporter inhibition in Clone20-Shn3RL – cell-based, Renilla luciferase, cherry-picked, counter-screen for Shn3 inhibitor project, dose response (AID 624133). Type of assay: functional. (In general: A counterscreen serves to expose hits that act by an unwanted route or on another target.)
Assay [4] is described as follows: blockers of HIV-1 envelope-mediated cell-cell fusion – cherry-pick, dose response (AID 652057). Format: functional, cell-based.
Assay [5] can be described thus: blockers of HIV-1 ZM109 envelope-driven cell-cell fusion – HeLa effector, CEM target cells, luciferase, cherry-pick, dose response (AID 652058).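 Note: luciferase signal from HIV-1 Env mediated cell-cell fusion of effector and target cells.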 Format: functional, cell-based.
Assay [6] is described as follows: HIV-1 AD8 envelope cell-cell fusion blockers – cherry-pick, dose response (AID 652062).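 Note: luciferase signal from cell-cell fusion driven by HIV-1 clade B AD8 Env; potency is for inhibitors of fusion seen as a drop in luminescence.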 Type of assay: functional, cell-based.
In assay [7] the target is T1, Corticotropin-releasing factor receptor 2/Corticotropin-releasing factor-binding protein (Homo sapiens, UniProt P24387+Q13324).
T1 sequence (Q13324 whole entry): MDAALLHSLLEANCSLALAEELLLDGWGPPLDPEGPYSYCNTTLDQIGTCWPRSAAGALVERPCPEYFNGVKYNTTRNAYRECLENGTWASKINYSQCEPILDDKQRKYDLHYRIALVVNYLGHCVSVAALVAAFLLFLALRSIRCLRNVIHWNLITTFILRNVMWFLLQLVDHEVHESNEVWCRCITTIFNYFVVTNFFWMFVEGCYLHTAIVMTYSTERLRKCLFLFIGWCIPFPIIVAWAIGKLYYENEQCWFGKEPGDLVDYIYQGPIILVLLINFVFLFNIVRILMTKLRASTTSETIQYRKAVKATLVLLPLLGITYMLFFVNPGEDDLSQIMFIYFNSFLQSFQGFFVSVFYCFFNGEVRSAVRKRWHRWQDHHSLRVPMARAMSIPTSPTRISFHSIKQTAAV
T1 sequence (P24387 whole entry): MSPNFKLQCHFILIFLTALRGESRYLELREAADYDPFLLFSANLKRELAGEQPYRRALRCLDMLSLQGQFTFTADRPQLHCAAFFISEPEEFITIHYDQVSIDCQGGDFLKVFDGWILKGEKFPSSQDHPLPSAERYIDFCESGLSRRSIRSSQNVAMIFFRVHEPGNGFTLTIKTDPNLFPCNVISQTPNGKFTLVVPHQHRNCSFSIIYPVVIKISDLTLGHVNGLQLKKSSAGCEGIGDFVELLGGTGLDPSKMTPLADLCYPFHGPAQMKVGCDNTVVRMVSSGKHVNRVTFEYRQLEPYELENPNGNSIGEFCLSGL
The experiment in a line: Dose Response confirmation of uHTS hits for small molecule antagonists of the CRF-binding protein and CRF-R2 receptor complex. Format: functional. Conditions: read-out: IC50_Mean.

In assay [8] the target is T1, Corticotropin-releasing factor receptor 2/Corticotropin-releasing factor-binding protein. Nature of the assay: activators of CRF receptor 2 with binding protein – uHTS hits, confirmation (AID 602473). Type of assay: functional. As to conditions: read-out: EC50_Mean.
The nature of assay [9]: blockers of CRF-binding protein–CRF-R2 complex – cell-based, uHTS hits, 384-well, dose response (AID 651639). Type of assay: functional, Homo sapiens. As to conditions: read-out: IC50_Mean.
Another assay is described as follows: cells. Type of assay: functional.
Another assay has as its target Estrogen receptor beta (Homo sapiens, UniProt Q92731).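 Note: recombinant ER-beta bound to coactivator SRC1 peptide in presence of estradiol agonist; inhibitors block coactivator peptide binding and lower the FRET signal.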
The target of assay [10] is T2, Heat shock factor protein 1 (Mus musculus, UniProt P38532).
T2 sequence (P38532 whole entry): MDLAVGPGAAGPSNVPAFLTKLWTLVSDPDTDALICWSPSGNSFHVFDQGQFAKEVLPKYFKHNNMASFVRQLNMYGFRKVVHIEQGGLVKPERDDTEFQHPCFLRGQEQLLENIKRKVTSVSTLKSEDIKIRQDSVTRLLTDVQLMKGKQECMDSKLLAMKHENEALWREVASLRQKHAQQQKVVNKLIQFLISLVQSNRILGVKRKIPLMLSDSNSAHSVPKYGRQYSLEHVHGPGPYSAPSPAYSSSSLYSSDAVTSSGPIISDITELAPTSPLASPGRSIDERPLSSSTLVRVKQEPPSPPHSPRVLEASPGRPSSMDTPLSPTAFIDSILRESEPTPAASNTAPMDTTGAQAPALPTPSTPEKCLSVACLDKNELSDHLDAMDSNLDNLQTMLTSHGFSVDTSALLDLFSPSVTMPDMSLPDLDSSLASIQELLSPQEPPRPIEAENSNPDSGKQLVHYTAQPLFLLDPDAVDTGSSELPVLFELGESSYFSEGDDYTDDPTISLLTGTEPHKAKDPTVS
The experiment in a line: enhancement of HSF1-driven luciferase signal – cell-based, NIH3T3, luminescence, dose retest, confirmation (AID 435004).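 Note: stress induced by proteasome inhibitor MG132 added 30 min after compound; luciferase reporter driven by HSF1 response element in NIH3T3 cells; actives raise luminescence as potentiators of the MG132 stress response.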 Type of assay: functional.

The target of assay [11] is Induced myeloid leukemia cell differentiation protein Mcl-1 (Homo sapiens, UniProt Q07820). Type of assay: functional.
Induced myeloid leukemia cell differentiation protein Mcl-1, sequence (Q07820 whole entry): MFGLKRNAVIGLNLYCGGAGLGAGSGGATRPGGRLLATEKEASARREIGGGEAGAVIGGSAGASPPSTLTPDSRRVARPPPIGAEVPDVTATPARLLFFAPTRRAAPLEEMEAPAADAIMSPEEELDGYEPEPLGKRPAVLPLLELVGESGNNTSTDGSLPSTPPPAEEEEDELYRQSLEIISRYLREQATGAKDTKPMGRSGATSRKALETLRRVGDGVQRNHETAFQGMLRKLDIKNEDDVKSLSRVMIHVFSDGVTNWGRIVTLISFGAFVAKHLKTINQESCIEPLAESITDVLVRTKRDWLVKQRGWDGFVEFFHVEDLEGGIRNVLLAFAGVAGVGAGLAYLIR
A further assay concerns P388/ADR. The experiment in a line: cells. Type of assay: functional. As to conditions: Mus musculus.
The next assay concerns SN12K1. The experiment in a line: cells. Type of assay: functional. As to conditions: Homo sapiens.
The subject of the next assay is P388. The experiment in a line: cells. Conditions: Mus musculus. Type of assay: functional.
The target in another assay is Paired box protein Pax-8 (Homo sapiens, UniProt Q06710). Nature of the assay: PAX8 transcriptional activity inhibition in RMG-I – RMG-I cells, luciferase, cherry-pick, dose response (AID 687027).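 Note: luciferase reporter driven by Pax8 target thyroperoxidase promoter measured by SteadyGlo luminescence.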 Format: functional, cell-based.
Paired box protein Pax-8, sequence (Q06710 whole entry): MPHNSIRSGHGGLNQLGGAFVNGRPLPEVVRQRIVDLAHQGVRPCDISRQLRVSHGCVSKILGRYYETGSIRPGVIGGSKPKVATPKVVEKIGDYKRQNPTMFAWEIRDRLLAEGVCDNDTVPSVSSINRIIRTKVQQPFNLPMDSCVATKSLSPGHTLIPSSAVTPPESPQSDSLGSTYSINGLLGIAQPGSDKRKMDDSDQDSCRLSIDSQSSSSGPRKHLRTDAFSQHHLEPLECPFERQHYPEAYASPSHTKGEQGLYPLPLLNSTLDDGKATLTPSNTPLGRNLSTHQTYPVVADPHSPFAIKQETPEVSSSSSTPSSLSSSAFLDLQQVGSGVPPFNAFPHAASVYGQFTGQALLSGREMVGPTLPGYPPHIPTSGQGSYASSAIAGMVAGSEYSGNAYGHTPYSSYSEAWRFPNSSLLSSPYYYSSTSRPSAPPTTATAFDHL
Assay [12] in a line: intracellular Trypanosoma cruzi inhibitors in host cells – cell-based, plate reader, cherry-pick samples, set 3, dose response (AID 651818).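 Note: compounds incubated with infected cells for about four days.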 Format: functional.
Assay [13] can be described thus: growth inhibition of yeast DHODH-expressing 3D7 parasites – SYBR Green, dry powder samples, dose response (AID 1159570).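 Note: parasite growth measured after 72 hours of compound exposure.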 Format: functional, cell-based.
Assay [14] can be described thus: P. falciparum Dd2 growth inhibitors, dose response, SYBR Green, cherry-picked samples (AID 1159567). Type of assay: functional, cell-based.
Assay [15] in a line: Dd2 malaria parasite growth inhibition potency – SYBR Green, dry powder samples, dose response (AID 1159566).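 Note: potency for growth inhibition with lower SYBR green DNA signal.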 Format: functional, cell-based.
Assay [16] is described as follows: growth inhibition of PfATP4-mutant resistant parasites – NITD609-resistant line, SYBR Green, dry powder, dose response (AID 1159571).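 Note: parasites synchronized at ring stage by sorbitol before testing.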 Type of assay: functional, cell-based.

Structures are written as SMILES. Active and inactive are the calls of the source.

Estrogen receptor beta, sequence (Q92731 whole entry): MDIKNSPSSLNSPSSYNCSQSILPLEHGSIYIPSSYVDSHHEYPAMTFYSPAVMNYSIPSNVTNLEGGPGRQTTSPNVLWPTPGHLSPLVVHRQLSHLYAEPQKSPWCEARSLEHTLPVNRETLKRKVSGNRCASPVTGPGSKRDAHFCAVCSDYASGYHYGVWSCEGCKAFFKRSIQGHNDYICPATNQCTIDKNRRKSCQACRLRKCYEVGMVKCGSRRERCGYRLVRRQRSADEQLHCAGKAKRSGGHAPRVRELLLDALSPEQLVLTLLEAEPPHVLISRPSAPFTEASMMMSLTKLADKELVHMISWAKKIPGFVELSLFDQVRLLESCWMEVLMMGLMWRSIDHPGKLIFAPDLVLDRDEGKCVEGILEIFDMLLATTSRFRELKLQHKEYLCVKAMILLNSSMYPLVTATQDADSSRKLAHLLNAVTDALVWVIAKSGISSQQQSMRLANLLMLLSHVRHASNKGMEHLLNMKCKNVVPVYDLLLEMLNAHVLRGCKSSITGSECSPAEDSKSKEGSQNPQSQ

For `CSc1ccc(CN(C)C(=O)c2cccc(S(=O)(=O)N3CCN(Cc4ccccc4)CC3)c2)cc1`, the AC50 (commonly the concentration at which the activity in the assay is half-maximal) in assay [1] is 2.89 µM (active); in assay [2], 64.6 µM (active); in assay [3] it was 14.3 µM (active); in assay [4], 10.3 µM (active); in assay [5], 10.3 µM (active); in [6] it was 8.39 µM (active).

With `O=C(Oc1c(Br)cc([N+](=O)[O-])cc1Br)c1cccnc1`, the IC50 was 9.69 µM (active) in assay [7] and > 20 µM (inactive) in assay [9]. For the same compound, the EC50 in assay [8] was > 53 µM (inactive).

Take `Cn1c(COc2ccccc2)nnc1SCC(=O)c1cccc([N+](=O)[O-])c1`: the IC50 in [7] is 23.4 µM (active); in assay [9], 7.77 µM (active). In addition, the EC50 in assay [8] is > 53 µM (inactive).

Take `CCCCNC(=O)COC(=O)c1cc(F)c(F)cc1Cl`: the IC50 in “cells” is 8.58 µM (active).

In the case of `Cc1ccccc1Cn1ccc(NC(=O)c2cc3ncc(Br)cn3n2)n1`, the IC50 is < 0.368 µM (active) in [7] and 2.65 µM (active) in assay [9]. Moreover, the EC50 in [8] is > 53 µM (inactive).

As for `O=C(CNC(=O)c1ccco1)OCc1ccc(Cl)cc1`, the IC50 at Estrogen receptor beta was > 50 µM (not active).

As for `CCn1cc(SCC(=O)NCc2ccc3c(c2)OCO3)c2ccccc21`, at Estrogen receptor beta, the IC50 is > 50 µM (not active).

Regarding `NS(=O)(=O)c1ccc(CCNC2CC(=O)N(CCc3ccccc3)C2=O)cc1` (centres undefined), at Estrogen receptor beta, the IC50 is on record as > 50 µM (not active).

For the compound `Cc1ccc2cccc(Oc3ncnc4scc(-c5ccccc5)c34)c2n1`, the values for the IC50 in assay [7] and in [9] were 7.86 µM (active) and 9.74 µM (active), respectively. In addition, the EC50 in assay [8] was > 53 µM (inactive).

In the case of `COc1ccc(C(=O)COC(=O)c2cccnc2SC)cc1`, the EC50 in assay [10] was > 260 µM (inactive); in [8], > 53 µM (inactive). Further, the IC50 is 1.85 µM (active) in [7] and 3.77 µM (active) in assay [9].

Regarding `O=C(CN1C(=O)/C(=C2\SC(=S)N(C3CCS(=O)(=O)C3)C2=O)c2ccccc21)Nc1ccccc1` (centres undefined), in assay [11], the IC50 is 5.8 µM (active).

For the compound `CCOC(=O)c1c(NC(=O)c2cc(-c3ccc(O)cc3)on2)sc(C(C)=O)c1C`, the IC50 in assay [11] is 3.69 µM (active).

Consider `CC(C)CCCCCCCCCCCCC(=O)NCC(=O)NC1C(C)OC(Nc2[nH]cnc3ncnc2-3)C(O)C1O` (centres undefined), for which the GI50 in the assay on P388/ADR, in the assay with SN12K1 and in the assay on P388 was 0.01 µM (active) throughout. Further, at Paired box protein Pax-8, the AC50 was < 0.26 µM (active).

For the compound `N#Cc1ccc(CN(Nc2ccccc2)c2ccccc2)cc1`, the figures for the IC50 in [7] and in assay [9] were 14.3 µM (active) and 10 µM (active), respectively. In addition, the EC50 in assay [8] is > 53 µM (inactive).

With `C[C@H](CO)N1C[C@H](C)[C@H](CN(C)Cc2ccc(C(=O)Nc3ccccc3N)cc2)Oc2ccc(NC(=O)C3CC3)cc2CC1=O`, the AC50 in [12] is 2.66 µM (active).

`Cc1ccc(S(=O)(=O)N(C)C[C@H]2Oc3c(NC(=O)c4nc5ccccc5s4)cccc3C(=O)N([C@H](C)CO)C[C@@H]2C)cc1`: the AC50 in [12] was 0.839 µM (active).

With `COc1ccc(NC(=O)Nc2cccc3c2O[C@@H](CN(C)Cc2ccc(C(=O)O)cc2)[C@@H](C)CN([C@@H](C)CO)C3=O)cc1`, in assay [12], the AC50 is 20 µM (inactive).

As to `C[C@@H]1CN([C@H](C)CO)C(=O)Cc2cc(NC(=O)Nc3ccc(C(F)(F)F)cc3)ccc2O[C@@H]1CN(C)S(=O)(=O)c1ccccc1`, the half-maximal activity concentration (AC50) in assay [12] is 4.23 µM (active).

As for `C[C@@H]1CCCCO[C@@H](CN(C)Cc2ccc(Cl)c(Cl)c2)[C@@H](C)CN([C@H](C)CO)C(=O)c2cc(NS(=O)(=O)c3ccccc3)ccc2O1`, the AC50 in [12] was 5.37 µM (active).

Turning to `COc1ccccc1S(=O)(=O)N(C)C[C@@H]1OCc2ccccc2-c2c(n(C)c3ccccc23)C(=O)N([C@@H](C)CO)C[C@@H]1C`, the concentration at half-maximal activity (AC50) in assay [13] was 0.507 µM (active); in assay [14] it was 2.19 µM (active); in assay [15] it was 0.445 µM (active); in assay [16] it was 0.44 µM (active).
